Experimental data reported in ChEMBL document CHEMBL3244014, “Selenium-sulfur analogues. 1. Synthesis and biochemical evaluation of selenotetramisole” (J Med Chem, 1978).
Activity calls are given as the source filed them. The rule behind the calls is not given here.

How the values were obtained:
[1] = target: Intestinal-type alkaline phosphatase (Bos taurus) (UniProt P19111); experiment: Inhibition of calf intestine alkaline phosphatase using p-nitrophenyl phosphate as substrate at 8.7 x 10^-5 M up to 35 mins by spectrophotometry
Chain of Intestinal-type alkaline phosphatase (Bos taurus) (P19111 20-506 limits assumed): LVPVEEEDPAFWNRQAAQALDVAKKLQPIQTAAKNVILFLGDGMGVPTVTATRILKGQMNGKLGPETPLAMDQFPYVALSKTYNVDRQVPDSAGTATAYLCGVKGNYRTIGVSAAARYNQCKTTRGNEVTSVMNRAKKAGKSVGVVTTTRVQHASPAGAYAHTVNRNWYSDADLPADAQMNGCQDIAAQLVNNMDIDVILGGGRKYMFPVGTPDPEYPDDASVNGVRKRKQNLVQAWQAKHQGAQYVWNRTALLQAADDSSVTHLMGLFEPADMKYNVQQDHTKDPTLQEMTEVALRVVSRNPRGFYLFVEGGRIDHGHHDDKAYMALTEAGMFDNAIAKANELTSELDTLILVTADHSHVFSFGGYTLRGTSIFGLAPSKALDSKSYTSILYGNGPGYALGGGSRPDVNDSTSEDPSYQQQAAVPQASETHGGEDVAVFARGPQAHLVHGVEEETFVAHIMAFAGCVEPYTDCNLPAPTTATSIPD

[2] = target: Alkaline phosphatase, placental type (Homo sapiens) (UniProt P05187); experiment: Inhibition of human placenta alkaline phosphatase using p-nitrophenyl phosphate as substrate at 8.7 x 10^-5 M up to 35 mins by spectrophotometry
Chain of Alkaline phosphatase, placental type (Homo sapiens) (P05187 whole entry): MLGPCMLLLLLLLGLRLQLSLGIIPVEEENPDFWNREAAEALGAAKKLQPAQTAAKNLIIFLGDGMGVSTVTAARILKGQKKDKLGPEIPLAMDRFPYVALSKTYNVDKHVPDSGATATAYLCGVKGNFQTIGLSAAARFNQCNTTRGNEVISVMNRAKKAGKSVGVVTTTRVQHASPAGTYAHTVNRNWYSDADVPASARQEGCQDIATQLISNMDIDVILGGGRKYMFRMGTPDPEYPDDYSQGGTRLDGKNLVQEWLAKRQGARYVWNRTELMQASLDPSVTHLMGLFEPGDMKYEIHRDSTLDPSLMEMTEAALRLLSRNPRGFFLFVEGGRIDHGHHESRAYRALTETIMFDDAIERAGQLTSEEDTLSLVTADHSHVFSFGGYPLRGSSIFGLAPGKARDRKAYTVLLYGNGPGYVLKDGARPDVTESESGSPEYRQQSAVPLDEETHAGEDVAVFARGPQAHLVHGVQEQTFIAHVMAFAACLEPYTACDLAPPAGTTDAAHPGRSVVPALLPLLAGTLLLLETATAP

[3] = target: T1, Alkaline phosphatase, tissue-nonspecific isozyme (Homo sapiens) (UniProt P05186); experiment: Inhibition of human serum containing 40% bone alkaline phosphatase using p-nitrophenyl phosphate as substrate at 8.7 x 10^-5 M up to 35 mins by spectrophotometry
T1 sequence (whole entry): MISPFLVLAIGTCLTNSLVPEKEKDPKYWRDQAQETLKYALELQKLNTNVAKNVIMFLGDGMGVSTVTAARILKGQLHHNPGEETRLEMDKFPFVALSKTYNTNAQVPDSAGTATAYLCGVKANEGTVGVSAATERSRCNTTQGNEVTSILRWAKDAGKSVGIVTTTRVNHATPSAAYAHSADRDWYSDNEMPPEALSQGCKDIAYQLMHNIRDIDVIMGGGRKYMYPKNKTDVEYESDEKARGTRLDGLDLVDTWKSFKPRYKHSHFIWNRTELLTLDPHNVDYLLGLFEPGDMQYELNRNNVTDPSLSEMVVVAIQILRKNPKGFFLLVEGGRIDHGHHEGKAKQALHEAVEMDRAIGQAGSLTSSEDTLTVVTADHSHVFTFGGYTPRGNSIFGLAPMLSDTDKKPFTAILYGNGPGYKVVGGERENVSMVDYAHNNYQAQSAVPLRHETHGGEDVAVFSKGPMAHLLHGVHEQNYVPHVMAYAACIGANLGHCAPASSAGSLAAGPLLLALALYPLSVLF

[4] = target: Intestinal-type alkaline phosphatase (Homo sapiens) (UniProt P09923); experiment: Inhibition of human serum containing 26% intestine alkaline phosphatase using p-nitrophenyl phosphate as substrate at 8.7 x 10^-5 M up to 35 mins by spectrophotometry
Chain of Intestinal-type alkaline phosphatase (Homo sapiens) (P09923 20-503 limits assumed): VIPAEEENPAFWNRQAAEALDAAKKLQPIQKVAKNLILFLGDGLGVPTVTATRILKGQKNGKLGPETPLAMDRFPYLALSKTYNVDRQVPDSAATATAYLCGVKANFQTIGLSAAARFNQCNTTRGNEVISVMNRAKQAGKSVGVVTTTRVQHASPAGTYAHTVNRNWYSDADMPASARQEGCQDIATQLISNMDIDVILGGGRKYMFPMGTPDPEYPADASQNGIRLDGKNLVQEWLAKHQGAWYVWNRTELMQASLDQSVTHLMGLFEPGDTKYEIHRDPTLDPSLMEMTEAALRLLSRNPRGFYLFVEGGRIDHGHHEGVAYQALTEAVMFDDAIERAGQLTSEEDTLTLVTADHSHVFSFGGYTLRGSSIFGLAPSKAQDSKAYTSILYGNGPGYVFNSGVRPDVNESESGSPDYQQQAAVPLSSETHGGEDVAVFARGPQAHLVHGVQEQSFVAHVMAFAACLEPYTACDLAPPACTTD

[5] = target: T1, Alkaline phosphatase, tissue-nonspecific isozyme (Homo sapiens); experiment: Inhibition of human serum containing 8% liver alkaline phosphatase using p-nitrophenyl phosphate as substrate at 8.7 x 10^-5 M up to 35 mins by spectrophotometry
[6] = target: T1, Alkaline phosphatase, tissue-nonspecific isozyme (Homo sapiens); experiment: Inhibition of human serum containing 86% liver alkaline phosphatase using p-nitrophenyl phosphate as substrate at 8.7 x 10^-5 M up to 35 mins by spectrophotometry
[7] = target: T1, Alkaline phosphatase, tissue-nonspecific isozyme (Homo sapiens); experiment: Inhibition of human serum containing 14% bone alkaline phosphatase using p-nitrophenyl phosphate as substrate at 8.7 x 10^-5 M up to 35 mins by spectrophotometry
[8] = target: T1, Alkaline phosphatase, tissue-nonspecific isozyme (Homo sapiens); experiment: Inhibition of human serum containing 60% liver alkaline phosphatase using p-nitrophenyl phosphate as substrate at 8.7 x 10^-5 M up to 35 mins by spectrophotometry
[9] = target: T1, Alkaline phosphatase, tissue-nonspecific isozyme (Homo sapiens); experiment: Inhibition of human serum containing 10% bone alkaline phosphatase using p-nitrophenyl phosphate as substrate at 8.7 x 10^-5 M up to 35 mins by spectrophotometry
[10] = target: T1, Alkaline phosphatase, tissue-nonspecific isozyme (Homo sapiens); experiment: Inhibition of human serum containing 92% liver alkaline phosphatase using p-nitrophenyl phosphate as substrate at 8.7 x 10^-5 M up to 35 mins by spectrophotometry
[11] = organism: Bos taurus; experiment: Inhibition of bovine placenta alkaline phosphatase using p-nitrophenyl phosphate as substrate at 8.7 x 10^-5 M up to 35 mins by spectrophotometry
[12] = target: T1, Alkaline phosphatase, tissue-nonspecific isozyme (Homo sapiens); experiment: Inhibition of human serum containing 64% liver alkaline phosphatase using p-nitrophenyl phosphate as substrate at 8.7 x 10^-5 M up to 35 mins by spectrophotometry
[13] = target: T2, Alkaline phosphatase, tissue-nonspecific isozyme (Bos taurus) (UniProt P09487); experiment: Inhibition of bovine liver alkaline phosphatase using p-nitrophenyl phosphate as substrate at 8.7 x 10^-5 M up to 35 mins by spectrophotometry
T2 sequence (whole entry): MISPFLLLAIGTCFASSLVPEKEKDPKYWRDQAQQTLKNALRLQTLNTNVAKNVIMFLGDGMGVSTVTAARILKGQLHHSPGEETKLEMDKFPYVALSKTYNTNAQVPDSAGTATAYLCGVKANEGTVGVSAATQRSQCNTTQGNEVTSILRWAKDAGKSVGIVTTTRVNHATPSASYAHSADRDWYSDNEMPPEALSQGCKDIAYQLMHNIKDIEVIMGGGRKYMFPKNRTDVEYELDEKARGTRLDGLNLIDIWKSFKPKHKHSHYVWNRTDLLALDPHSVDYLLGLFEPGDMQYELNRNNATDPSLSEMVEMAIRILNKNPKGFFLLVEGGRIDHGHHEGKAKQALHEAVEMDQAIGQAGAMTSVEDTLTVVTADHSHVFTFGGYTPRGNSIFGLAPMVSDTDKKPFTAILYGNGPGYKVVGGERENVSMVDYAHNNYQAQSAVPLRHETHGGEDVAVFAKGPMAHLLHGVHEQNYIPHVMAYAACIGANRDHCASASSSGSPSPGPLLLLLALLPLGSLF

| Structure (SMILES) | inhibition [1] | inhibition [2] | inhibition [3] | inhibition [4] | inhibition [5] | inhibition [6] | inhibition [7] | inhibition [8] | inhibition [9] | inhibition [10] | inhibition [11] | inhibition [12] | inhibition [13] |
| --- | --- | --- | --- | --- | --- | --- | --- | --- | --- | --- | --- | --- | --- |
| c1ccc([C@@H]2CN3CC[Se]C3=N2)cc1 | inactive | inactive | inactive | inactive | inactive | inactive | inactive | inactive | inactive | inactive | inactive | inactive | inactive |
| c1ccc([C@@H]2CN3CCSC3=N2)cc1 (stereo in doubt; (-)) | 10% | 0% | 71% | 65% | 76% | 56% | 56% | 71% | 65% | 76% | 75% | 65% | 67% |
| c1ccc([C@H]2CN3CC[Se]C3=N2)cc1 | 10% | 0% | 78% | 70% | 80% | 63% | 63% | 78% | 70% | 80% | 78% | 70% | 76% |
| c1ccc([C@@H]2CN3CCSC3=N2)cc1 (stereo in doubt; (+)) | inactive | inactive | inactive | inactive | inactive | inactive | inactive | inactive | inactive | inactive | inactive | inactive | inactive |
